Results on one compound are retold here after patent US20250122218A1, “MODULATORS OF CYSTIC FIBROSIS TRANSMEMBRANE CONDUCTANCE REGULATOR” (Vertex Pharmaceuticals Incorporated, priority 2022, published 2025).

For the data set the following is noted: from C=CCCCc1nc(-c2nnc(C(CCC=C)(OCc3ccccc3)C(F)(F)F)o2)c(NC(=O)OC(C)(C)C)cc1C(F)(F)F; rcm bond; 14-membered ring; Grubbs II (22 mol%); toluene; 2.63 mM; 100.0 °C.

With `CC(C)(C)OC(=O)Nc1cc(C(F)(F)F)c2nc1-c1nnc(o1)C(OCc1ccccc1)(C(F)(F)F)CCC=CCCC2` (mixture of isomers), the ring closure, isolated yield was found to be 39%.
